Data taken from ChEMBL document CHEMBL1201862, “PubChem BioAssay data set” (2004).
Where “and” joins values, the source holds several entries; their conditions need not be identical. Identical values can stand only once. Calls of active or inactive are those of the source.

Experiments:
[1] = target: T1, Estrogen receptor (Homo sapiens, UniProt P03372);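 further: potency for inhibiting coactivator peptide recruitment to the receptor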
T1 sequence (P03372 whole entry): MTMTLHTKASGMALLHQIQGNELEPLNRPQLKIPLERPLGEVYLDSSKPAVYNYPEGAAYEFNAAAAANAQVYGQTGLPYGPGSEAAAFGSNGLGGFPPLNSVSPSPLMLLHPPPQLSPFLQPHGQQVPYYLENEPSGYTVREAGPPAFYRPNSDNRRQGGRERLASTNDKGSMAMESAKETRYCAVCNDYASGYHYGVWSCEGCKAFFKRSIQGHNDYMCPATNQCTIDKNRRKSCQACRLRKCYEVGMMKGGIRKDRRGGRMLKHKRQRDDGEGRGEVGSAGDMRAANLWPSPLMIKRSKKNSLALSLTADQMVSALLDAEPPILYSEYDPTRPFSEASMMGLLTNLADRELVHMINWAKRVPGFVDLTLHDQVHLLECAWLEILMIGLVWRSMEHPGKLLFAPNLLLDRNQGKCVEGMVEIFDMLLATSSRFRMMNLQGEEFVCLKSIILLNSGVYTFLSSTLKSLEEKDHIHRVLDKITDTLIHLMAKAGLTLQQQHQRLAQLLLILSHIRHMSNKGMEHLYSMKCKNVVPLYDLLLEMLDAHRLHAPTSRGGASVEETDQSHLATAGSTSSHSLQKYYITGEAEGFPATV

[2] = target: T2, Estrogen receptor beta (Homo sapiens, UniProt Q92731);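 further: recombinant ER-beta bound to coactivator SRC1 peptide in presence of estradiol agonist; inhibitors block coactivator peptide binding and lower the FRET signal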
[3] = target: T2, Estrogen receptor beta; assay: ERβ–SRC-3 coactivator interaction inhibitors, confirmation, orthogonal assay, biochemical, ELISA, streptavidin-HRP readout (AID 1060)
[4] = target: Low molecular weight phosphotyrosine protein phosphatase (Homo sapiens, UniProt P24666); format: functional; conditions: read-out: IC50_Mean;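 further: Dose-response confirmation assay measuring inhibition of LMPTP enzyme activity by fluorescence intensity read-out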
[5] = target: T3, Histone-lysine N-methyltransferase NSD2 (Homo sapiens, UniProt O96028); format: biochemical
T3 sequence (O96028 whole entry): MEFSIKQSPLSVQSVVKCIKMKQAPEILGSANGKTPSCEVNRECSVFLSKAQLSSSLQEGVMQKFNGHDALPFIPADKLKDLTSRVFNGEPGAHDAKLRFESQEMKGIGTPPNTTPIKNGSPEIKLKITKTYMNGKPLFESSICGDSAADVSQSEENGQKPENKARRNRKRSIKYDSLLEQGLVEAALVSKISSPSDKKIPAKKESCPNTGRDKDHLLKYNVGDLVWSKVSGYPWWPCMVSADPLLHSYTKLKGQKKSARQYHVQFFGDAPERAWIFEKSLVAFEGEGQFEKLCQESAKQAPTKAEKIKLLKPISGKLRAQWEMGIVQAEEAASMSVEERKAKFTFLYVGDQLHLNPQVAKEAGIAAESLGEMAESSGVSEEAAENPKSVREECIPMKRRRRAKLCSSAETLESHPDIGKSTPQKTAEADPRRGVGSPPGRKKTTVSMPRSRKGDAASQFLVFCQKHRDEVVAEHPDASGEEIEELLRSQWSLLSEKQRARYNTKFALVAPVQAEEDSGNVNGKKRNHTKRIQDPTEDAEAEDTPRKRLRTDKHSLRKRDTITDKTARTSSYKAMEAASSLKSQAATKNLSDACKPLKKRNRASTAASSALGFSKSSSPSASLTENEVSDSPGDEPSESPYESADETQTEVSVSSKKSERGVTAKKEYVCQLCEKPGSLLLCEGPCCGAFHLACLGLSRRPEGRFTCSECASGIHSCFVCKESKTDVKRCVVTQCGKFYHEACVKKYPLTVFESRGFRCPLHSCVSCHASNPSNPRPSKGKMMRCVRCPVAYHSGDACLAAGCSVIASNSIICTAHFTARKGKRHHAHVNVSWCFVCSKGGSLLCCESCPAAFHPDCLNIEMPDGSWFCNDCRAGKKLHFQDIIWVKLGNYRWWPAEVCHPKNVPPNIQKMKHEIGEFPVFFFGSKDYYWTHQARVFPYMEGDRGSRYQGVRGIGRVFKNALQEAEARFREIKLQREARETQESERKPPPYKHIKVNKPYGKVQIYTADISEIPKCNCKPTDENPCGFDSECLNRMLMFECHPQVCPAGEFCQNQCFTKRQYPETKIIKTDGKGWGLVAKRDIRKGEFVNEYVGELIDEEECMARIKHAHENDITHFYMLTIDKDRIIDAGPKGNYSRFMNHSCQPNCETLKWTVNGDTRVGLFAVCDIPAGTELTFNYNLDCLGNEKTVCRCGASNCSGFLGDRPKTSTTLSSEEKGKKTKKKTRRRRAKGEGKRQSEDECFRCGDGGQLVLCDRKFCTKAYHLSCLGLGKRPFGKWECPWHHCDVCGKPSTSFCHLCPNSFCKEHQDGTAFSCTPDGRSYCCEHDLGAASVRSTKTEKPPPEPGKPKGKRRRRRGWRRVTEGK

[6] = target: T4, Insulin-degrading enzyme (Homo sapiens, UniProt P14735); assay: activators of recombinant IDE enzyme, dose response, counter-screen for IDE activator project, biochemical, fluorescence polarization (AID 588681)
T4 sequence (P14735 whole entry): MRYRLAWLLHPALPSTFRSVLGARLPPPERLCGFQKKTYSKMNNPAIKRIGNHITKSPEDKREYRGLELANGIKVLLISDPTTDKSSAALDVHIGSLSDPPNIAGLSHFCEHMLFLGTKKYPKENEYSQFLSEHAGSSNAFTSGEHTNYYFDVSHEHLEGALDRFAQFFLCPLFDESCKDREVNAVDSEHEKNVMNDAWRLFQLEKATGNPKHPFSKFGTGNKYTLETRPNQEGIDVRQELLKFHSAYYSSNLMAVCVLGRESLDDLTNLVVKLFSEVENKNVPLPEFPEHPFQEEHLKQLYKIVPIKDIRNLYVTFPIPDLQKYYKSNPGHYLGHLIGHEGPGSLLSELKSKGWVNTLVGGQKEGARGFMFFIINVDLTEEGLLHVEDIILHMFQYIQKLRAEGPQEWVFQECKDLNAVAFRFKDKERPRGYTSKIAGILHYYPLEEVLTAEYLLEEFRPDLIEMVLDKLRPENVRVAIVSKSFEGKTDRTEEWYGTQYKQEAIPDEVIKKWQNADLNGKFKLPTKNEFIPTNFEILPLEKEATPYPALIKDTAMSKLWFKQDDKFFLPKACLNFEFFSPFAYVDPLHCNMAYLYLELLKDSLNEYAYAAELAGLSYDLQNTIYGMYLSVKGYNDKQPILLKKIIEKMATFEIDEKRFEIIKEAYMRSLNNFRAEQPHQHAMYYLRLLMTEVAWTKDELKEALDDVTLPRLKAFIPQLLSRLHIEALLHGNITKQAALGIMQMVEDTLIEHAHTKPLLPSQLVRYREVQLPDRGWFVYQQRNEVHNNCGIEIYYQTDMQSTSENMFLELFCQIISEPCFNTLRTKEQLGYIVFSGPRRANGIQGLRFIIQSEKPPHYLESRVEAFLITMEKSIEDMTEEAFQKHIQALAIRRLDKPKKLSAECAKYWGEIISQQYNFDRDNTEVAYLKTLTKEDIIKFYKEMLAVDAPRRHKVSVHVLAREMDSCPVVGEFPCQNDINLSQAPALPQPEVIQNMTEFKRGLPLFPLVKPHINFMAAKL

[7] = target: T4, Insulin-degrading enzyme; assay: activators of endogenous IDE in HEK cells, dose response, cell-based, fluorescence polarization (AID 588439); format: functional
[8] = test system: HEK293; assay: HEK cell cytotoxicity by LDH release, dose response, cytotoxicity control for IDE activator project, fluorescence, HEK cells (AID 588440); format: functional, cell-based; conditions: Homo sapiens;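 further: cytotoxicity by LDH release measuring loss of membrane integrity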
[9] = test system: HEK293; assay: optical interference in Abeta FP readout, dose response, artefact control for IDE activator project, biochemical, fluorescence polarization (AID 588442); format: functional, cell-based; conditions: Homo sapiens
[10] = HEp-2 cell cytotoxicity, dose response, cytotoxicity control for RSV inhibitor project, HTS (AID 2410); format: functional; conditions: human respiratory syncytial virus
[11] = test system: Vero; assay: cells; format: functional, cell-based; conditions: Chlorocebus sabaeus
[12] = test system: Vero; assay: cells; format: functional; conditions: Chlorocebus sabaeus
[13] = cells
[14] = target: SUMO E1/E2 (Homo sapiens, UniProt P63279+Q9UBE0+Q9UBT2); assay: SAR analysis of SUMOylation using HTRF in an in-Vitro dose response assay. [Related pubchem assays (depositor defined):AID2006, AID2011, AID2018, AID2069, AID2658]; format: functional
[15] = target: T5, Voltage-gated N-type calcium channel alpha-1B subunit/Amyloid beta A4 precursor protein-binding family A member 1 (Homo sapiens, UniProt Q00975+Q02410); assay: disruptors of Mint-PDZ/N-type channel peptide interaction – biochemical, HTRF, set 2, SAR follow-up (AID 434980); format: functional
[16] = target: T5, Voltage-gated N-type calcium channel alpha-1B subunit/Amyloid beta A4 precursor protein-binding family A member 1; assay: disruptors of Mint-PDZ/N-type channel peptide interaction – biochemical, HTRF, SAR follow-up (AID 2489); format: functional
[17] = target: Potassium voltage-gated channel subfamily KQT member 2 (Rattus norvegicus, UniProt O88943); assay: KCNQ2 potassium channel inhibitors, dose response, cell-based, automated electrophysiology, set II, rat KCNQ2 (AID 588637); format: functional
[18] = target: T6, Carboxy-terminal domain RNA polymerase II polypeptide A small phosphatase 1 (Homo sapiens, UniProt Q9GZU7); assay: inhibitors of CTDSP1, concentration-response testing, biochemical assay, absorbance-based, actives from ultra-high-throughput screening (AID 540297); format: functional
T6 sequence (Q9GZU7 whole entry): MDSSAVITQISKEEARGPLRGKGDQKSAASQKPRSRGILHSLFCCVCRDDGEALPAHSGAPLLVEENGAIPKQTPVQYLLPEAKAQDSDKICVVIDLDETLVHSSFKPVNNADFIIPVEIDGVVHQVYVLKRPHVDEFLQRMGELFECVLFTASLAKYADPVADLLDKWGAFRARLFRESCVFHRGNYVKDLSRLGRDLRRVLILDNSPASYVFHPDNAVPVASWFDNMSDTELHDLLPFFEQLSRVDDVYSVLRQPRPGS

[19] = target: T7, Apoptotic protease-activating factor 1 (Homo sapiens, UniProt O14727); assay: SAR analysis of small molecule Activators of Apaf-1 in a Fluorescent assay.; format: functional; conditions: read-out: EC50_Mean;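 further: caspase-3 cleavage of fluorogenic Rh110 DEVD substrate downstream of apoptosome activation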
T7 sequence (O14727 whole entry): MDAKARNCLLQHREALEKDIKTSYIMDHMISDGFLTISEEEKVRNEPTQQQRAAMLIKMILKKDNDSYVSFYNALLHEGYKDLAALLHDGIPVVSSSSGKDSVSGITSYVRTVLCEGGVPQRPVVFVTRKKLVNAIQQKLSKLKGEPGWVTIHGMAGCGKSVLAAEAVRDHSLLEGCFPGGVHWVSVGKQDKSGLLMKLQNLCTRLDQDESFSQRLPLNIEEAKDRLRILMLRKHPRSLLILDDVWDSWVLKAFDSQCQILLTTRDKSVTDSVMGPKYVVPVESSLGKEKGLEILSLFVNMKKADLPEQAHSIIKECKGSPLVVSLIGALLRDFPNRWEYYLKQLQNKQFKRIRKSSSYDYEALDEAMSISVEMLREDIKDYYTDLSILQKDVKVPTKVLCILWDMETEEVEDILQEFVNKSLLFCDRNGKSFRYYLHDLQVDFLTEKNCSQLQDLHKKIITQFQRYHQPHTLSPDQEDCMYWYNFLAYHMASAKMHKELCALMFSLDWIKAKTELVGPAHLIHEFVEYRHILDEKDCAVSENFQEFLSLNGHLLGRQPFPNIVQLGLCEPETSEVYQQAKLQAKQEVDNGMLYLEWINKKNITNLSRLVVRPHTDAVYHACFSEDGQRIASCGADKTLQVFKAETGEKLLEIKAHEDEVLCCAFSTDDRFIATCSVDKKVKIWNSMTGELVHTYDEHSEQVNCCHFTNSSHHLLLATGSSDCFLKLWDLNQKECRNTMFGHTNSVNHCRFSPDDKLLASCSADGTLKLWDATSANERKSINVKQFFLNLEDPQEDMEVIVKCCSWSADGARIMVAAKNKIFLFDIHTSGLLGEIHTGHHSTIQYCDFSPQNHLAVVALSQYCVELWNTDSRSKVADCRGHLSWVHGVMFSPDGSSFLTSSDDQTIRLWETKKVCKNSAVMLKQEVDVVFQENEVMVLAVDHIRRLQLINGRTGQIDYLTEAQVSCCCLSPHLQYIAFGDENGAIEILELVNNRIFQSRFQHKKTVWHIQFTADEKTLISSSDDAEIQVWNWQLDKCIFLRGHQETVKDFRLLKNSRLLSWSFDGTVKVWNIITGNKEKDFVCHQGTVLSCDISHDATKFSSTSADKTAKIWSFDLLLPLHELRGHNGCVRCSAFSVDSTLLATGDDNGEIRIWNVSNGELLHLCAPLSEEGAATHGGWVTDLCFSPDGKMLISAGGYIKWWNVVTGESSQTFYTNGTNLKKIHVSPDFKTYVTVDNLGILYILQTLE

[20] = target: Activin receptor type-1 (Homo sapiens, UniProt Q04771); assay: Navigating the Kinome. Panel member name: ACVR1; format: functional
Sequence of Activin receptor type-1 (Q04771 whole entry): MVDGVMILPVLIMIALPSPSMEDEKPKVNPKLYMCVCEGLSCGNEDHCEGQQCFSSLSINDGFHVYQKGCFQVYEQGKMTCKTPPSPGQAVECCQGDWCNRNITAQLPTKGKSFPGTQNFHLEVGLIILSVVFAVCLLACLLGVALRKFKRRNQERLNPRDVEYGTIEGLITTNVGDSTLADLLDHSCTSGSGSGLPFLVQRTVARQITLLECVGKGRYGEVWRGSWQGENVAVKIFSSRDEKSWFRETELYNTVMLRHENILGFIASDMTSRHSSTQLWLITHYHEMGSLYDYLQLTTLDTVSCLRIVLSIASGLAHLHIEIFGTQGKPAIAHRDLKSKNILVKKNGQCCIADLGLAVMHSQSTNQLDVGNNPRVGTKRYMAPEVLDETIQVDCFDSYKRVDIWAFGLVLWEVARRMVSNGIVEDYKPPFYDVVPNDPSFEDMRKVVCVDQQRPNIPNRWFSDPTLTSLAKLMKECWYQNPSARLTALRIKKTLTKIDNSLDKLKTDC

T5 sequence (Q00975 whole entry): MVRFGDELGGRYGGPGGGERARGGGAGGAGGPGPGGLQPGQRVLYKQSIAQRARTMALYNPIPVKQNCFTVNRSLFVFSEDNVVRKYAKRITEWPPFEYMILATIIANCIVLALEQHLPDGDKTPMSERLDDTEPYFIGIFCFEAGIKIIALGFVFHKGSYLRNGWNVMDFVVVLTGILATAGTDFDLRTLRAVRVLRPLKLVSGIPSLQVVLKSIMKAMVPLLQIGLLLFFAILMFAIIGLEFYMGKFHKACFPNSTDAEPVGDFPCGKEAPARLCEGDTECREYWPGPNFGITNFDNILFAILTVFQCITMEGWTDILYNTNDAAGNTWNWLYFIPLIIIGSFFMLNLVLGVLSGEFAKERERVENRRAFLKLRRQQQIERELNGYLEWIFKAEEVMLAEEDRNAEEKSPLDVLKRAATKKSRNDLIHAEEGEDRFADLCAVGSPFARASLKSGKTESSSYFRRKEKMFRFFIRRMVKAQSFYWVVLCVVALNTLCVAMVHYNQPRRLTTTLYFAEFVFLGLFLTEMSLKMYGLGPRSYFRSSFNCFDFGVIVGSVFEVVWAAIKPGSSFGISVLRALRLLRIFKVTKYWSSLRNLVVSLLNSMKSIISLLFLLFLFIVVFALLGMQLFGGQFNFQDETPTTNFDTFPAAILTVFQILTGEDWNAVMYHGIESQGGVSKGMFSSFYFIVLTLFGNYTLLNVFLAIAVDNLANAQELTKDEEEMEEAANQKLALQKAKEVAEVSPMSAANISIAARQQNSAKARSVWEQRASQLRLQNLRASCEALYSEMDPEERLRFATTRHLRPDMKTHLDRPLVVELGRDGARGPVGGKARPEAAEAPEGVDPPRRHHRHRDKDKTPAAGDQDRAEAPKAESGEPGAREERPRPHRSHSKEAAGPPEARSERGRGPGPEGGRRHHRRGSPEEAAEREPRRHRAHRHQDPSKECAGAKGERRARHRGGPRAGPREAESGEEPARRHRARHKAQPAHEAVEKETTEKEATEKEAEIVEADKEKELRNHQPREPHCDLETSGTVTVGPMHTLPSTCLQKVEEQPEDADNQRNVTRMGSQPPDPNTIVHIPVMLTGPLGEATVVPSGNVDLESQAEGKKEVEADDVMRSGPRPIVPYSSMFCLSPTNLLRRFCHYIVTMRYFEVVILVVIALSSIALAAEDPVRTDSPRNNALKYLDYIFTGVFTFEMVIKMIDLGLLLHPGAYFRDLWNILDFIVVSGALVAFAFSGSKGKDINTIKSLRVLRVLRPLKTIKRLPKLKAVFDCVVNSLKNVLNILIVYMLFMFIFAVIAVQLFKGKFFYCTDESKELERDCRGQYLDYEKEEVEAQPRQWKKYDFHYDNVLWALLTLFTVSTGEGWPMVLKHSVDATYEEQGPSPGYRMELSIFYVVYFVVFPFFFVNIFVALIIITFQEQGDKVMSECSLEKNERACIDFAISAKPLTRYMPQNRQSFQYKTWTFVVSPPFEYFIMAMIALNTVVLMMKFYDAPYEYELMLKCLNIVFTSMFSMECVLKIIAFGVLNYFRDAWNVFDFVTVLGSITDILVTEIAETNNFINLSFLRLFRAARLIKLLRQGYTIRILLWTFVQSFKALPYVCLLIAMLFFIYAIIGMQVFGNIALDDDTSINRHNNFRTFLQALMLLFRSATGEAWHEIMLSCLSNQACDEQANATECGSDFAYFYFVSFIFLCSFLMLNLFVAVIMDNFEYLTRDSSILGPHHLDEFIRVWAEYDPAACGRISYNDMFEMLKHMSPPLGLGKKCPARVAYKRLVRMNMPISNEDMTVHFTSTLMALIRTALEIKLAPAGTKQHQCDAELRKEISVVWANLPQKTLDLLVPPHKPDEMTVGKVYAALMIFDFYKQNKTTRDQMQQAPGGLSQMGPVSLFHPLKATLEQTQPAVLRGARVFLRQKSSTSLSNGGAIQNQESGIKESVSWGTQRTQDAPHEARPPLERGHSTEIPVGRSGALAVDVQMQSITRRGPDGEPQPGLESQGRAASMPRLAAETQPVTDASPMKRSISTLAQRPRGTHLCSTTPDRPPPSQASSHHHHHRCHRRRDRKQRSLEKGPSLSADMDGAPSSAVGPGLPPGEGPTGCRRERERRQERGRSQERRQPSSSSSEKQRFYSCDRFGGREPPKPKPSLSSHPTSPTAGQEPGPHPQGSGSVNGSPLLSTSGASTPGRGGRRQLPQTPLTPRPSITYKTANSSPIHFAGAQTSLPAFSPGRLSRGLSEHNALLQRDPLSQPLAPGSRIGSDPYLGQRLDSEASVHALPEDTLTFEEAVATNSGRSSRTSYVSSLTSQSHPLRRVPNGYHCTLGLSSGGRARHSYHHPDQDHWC
T5 sequence (Q02410 whole entry): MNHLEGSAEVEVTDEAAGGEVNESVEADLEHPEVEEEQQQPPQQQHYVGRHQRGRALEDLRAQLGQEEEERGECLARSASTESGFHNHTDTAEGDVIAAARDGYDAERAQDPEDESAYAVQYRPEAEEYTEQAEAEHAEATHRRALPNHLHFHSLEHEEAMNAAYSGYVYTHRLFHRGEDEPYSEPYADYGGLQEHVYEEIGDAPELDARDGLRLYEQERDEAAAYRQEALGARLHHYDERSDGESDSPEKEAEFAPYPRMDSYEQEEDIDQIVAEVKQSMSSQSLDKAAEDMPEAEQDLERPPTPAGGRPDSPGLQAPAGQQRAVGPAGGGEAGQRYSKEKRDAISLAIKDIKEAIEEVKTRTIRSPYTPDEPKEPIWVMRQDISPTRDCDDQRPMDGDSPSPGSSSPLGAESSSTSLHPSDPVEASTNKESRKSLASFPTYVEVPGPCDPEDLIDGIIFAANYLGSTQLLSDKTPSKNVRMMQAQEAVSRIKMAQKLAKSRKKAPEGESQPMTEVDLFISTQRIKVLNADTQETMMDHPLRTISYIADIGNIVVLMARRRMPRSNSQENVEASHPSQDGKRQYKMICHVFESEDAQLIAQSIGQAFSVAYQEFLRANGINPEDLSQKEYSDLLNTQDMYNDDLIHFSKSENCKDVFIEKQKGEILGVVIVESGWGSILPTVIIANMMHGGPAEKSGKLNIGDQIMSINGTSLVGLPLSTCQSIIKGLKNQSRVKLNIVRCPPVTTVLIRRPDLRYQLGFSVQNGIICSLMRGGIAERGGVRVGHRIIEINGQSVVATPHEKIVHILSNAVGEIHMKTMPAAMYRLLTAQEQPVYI
T2 sequence (Q92731 whole entry): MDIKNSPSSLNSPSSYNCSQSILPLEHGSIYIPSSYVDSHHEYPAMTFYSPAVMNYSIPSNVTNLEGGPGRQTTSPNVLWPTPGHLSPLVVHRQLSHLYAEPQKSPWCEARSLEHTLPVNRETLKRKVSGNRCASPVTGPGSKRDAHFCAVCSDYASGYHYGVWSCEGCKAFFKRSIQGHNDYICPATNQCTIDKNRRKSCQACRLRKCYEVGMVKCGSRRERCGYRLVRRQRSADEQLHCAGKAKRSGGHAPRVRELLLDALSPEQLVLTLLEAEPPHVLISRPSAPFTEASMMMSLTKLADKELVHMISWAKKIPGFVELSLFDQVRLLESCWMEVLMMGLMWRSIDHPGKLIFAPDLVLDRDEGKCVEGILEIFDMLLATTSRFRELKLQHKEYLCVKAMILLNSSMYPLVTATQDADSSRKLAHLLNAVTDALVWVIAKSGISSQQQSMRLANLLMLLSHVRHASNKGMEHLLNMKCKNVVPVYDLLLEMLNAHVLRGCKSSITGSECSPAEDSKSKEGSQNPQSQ
Sequence of Potassium voltage-gated channel subfamily KQT member 2 (O88943 whole entry, the tested form may be a part): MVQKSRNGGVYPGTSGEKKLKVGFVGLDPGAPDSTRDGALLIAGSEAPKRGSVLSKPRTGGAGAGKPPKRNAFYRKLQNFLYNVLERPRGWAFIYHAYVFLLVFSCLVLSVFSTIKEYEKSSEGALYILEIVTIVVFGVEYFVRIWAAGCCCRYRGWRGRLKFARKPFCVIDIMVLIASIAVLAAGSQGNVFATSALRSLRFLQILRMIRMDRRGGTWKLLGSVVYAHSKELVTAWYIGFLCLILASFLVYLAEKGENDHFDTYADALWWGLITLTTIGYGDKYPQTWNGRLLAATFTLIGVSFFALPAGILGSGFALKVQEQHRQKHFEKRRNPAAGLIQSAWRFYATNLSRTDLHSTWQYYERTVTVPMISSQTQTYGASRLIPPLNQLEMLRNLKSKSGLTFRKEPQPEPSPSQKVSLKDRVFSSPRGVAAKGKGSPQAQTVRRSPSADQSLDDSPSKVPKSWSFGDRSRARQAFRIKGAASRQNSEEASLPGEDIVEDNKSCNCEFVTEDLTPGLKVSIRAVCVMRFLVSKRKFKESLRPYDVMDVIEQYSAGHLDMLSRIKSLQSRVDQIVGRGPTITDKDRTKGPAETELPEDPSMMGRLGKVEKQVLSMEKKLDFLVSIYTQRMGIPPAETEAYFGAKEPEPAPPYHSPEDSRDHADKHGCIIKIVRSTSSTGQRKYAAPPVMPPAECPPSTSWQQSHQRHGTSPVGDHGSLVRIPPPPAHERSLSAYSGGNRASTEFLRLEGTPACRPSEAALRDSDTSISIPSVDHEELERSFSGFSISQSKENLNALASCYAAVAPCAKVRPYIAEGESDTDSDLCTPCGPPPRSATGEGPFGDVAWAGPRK

With `CCN(c1ccccc1)S(=O)(=O)c1cc(C(=O)O)ccc1C` the IC50 [1] was 13.1 µM (active), the IC50 [2] was 6.12 µM (active) and the IC50 [3] was 1.83 µM (not active). The IC50 [4] was 21 µM (inactive) and the AC50 [5] was 9.26 µM (active).
For `CCc1nnc(NS(=O)(=O)c2ccc(N/C=C3/C(=O)NC(=O)N(c4ccc(Cl)cc4)C3=O)cc2)s1`, the EC50 [6] was > 54.7 µM (inactive), the EC50 [7] was > 54.7 µM (inactive) and the IC50 [8] was > 89.2 µM (inactive). For the same molecule, the EC50 [9] was > 54.7 µM (inactive).
In the case of `O=C(O)c1ccccc1Nc1ccc([N+](=O)[O-])cc1`, the CC50 [10] is reported as 8.65 µM (active), the EC50 [6] is reported as 14 µM (inactive) and the IC50 [11] is reported as 8.6 µM (active). For the same molecule, the EC50 [7] was 7.99 µM (active), the CC50 [12] was > 25 µM (active) and the IC50 [8] was > 89.1 µM (inactive). For the same molecule, the EC50 [9] was 6.88 µM (active) and the IC50 [13] was 2.4 µM (active).
For `COc1ccc(CCNC(=O)c2cc(-c3ccco3)nc3ccccc23)cc1`, the IC50 [14] was 16.5 µM (active), the IC50 [15] was 12.8 µM (active) and > 56.8 µM (inactive) and the IC50 [16] was 17.3 µM (active) and > 56.8 µM (inactive). The IC50 [17] was 4.08 µM (active) and the IC50 [18] was 4.22 µM (active).
For `CC(Cc1ccc2c(c1)OCO2)C(=O)O` (centres undefined), the EC50 [19] was > 100 µM (inactive).
For `O=C1Cc2c([nH]c3ccc([N+](=O)[O-])cc23)-c2ccccc2N1` [ALSTERPAULLONE], the Ki [20] was 0.0631 µM (active).
